Read-outs that look alike come from different tables or passages of the source. Where only a bound is given, the exact number is not on record here.

The target of one data set is T1, 5HT2a receptor (Homo sapiens, UniProt P28223).
T1 construct: purchased Sigma
The experiment in a line: [3H]-ketanserin binding to 5HT2a receptor membranes. The procedure: Methods: Radioligand binding experiments were performed with commercially available membrane preparations from cells expressing the 5HT2a receptor (Sigma) in accordance with the manufacturer's instructions. [^3H]-ketanserin was used as the radioligand probe (according to the method of Leysen et al. (1988) Pharmacol. Exp. Therap. 244:310-21) at 1 nM concentration (0.05 μCi per reaction). Experiments were performed in triplicate, and non-specific binding was determined in the presence of an excess (10 μM) of metergoline (a relatively non-specific ergot-derived serotonin receptor antagonist).

Another data set deals with THP-1 cells. As to the kind of experiment: MCP-1 induced THP-1 cell migration, Transwell assay. The data set is classed as cell-based, human. The procedure:
Leukocyte migration was measured using the 96-well format micro Transwell® assay system from Neuroprobe (Gaithersburg, Md., USA). In principle, this assay consists of two chambers separated by a porous membrane. The chemoattractant is placed in the lower compartment and the cells are placed in the upper compartment.
The method was performed essentially as previously described (Reckless & Grainger (1999) Biochem. J. 340:803-11).
First, the cell suspension to be placed in the upper compartment was prepared. The THP-1 cells were pelleted by centrifugation (770×g; 4 mins) and washed with Geys Balanced Salt Solution with 1 mg/ml BSA (GBSS+BSA). This wash was then repeated, and the cells re-pelleted before being resuspended in a small volume of GBSS+BSA for counting, for example using a standard haemocytometer.
The volume of GBSS+BSA was then adjusted depending on the number of cells present so that the cells were at final density of 4.45×10^6 cells per ml of GBSS+BSA. This ensured that there were 100,000 THP-1 cells in each 25 μl of the solution to be placed in the upper chamber of the plate.
The suspension of THP-1 cells at 4.45×10^6 cells/ml was divided into three pots. […] To the second pot, the BSCI was added at the same concentration as in the first pot, but additionally the sstr2 antagonist was also added (for example BIM 23454 [Tulipano et al. (2002) 143:1218-24] or BIM 23627 were added at 66 nM final concentration from a stock solution in GBSS). To the third pot, GBSS+BSA plus vehicle as appropriate was added so that the volumes in three pots are equal, acting as a control.
Next, the chemoattractant solution to be placed in the lower compartment was prepared. MCP-1 was diluted in GBSS+BSA to give a final concentration of 25 ng/ml (after all additions). Note that, as recommended by Frow et al (Med. Res. Rev. 24:276-98) this is the concentration of MCP-1 which induces maximal migration in this system. This solution was divided into three pots, as for the cell suspension. To one pot, the BSCI was added to the same final concentration as was added to the cell suspension, in the second pot the BSCI and the sstr2 antagonist were both added at the same concentration as previously added to the cell suspension, while to the remaining pot GBSS+BSA plus vehicle as appropriate was added so that the volumes in the three pots were equal.
Once the chemoattractant solutions for the lower wells and cell solutions for the upper chambers were prepared, the migration chamber was assembled. 29 μl of the appropriate chemoattractant solution was placed into the lower well of the chamber. Assays were performed with at least triplicate determinations of each condition. Once all the lower chambers were filled, the porous membrane was applied to the chamber in accordance with the manufacturer's instructions. Finally, 25 μl of the appropriate cell solution was applied to each upper chamber. A plastic lid was placed over the entire apparatus to prevent evaporation.
The assembled chamber was incubated at 37° C., 5% CO2, for 2 hours.
At the end of the incubation, the liquid cell suspension was gently removed from the upper chamber, 20 μl of ice-cold 20 mM EDTA in PBS was added to the upper chamber, and the apparatus was incubated at 4° C. for 15 mins. This procedure caused any cells adhering to the underside of the membrane to fall into the lower chamber.
After this incubation the filter was carefully flushed with GBSS+BSA to wash off the EDTA, and then the filter was removed.
The number of cells migrated into the lower chamber under each condition can then be determined by a number of methods, including direct counting, labelling with fluorescent or radioactive markers or through the use of a vital dye. Typically, we utilised the vital dye MTT.

The subject of the next data set is Jurkat T cells. As to the kind of experiment: SDF-1α induced migration of parental Jurkat T cells. The class given is cell-based, human. The procedure:
Results: The level of the SDF-1α, receptor CXCR4 was similar on Jurkat-D3B and the parental Jurkat T cell line. Furthermore, the Jurkat-D3B cells responded to SDF-1α in a Transwell® chemotaxis assay (see Example 1 for the methodology employed) over a similar concentration range to the parental cell line.
Jurkat T cells and Jurkat-D3B cells were induced to migrate in response to 100 ng/ml SDF-1α (R&D systems; the concentration of SDF-1α which induced maximal cell migration in both lines). The BSCI BN83250 was then added at various concentrations between 0 nM and 1000 nM (each in triplicate) to both the upper and lower compartments (at the same concentration in each compartment, so as not to create a gradient of BSCI concentration). DMSO (1% final concentration) was used as the vehicle, and was present in all wells at equal concentration.

The next data set has as its system platelets. The experiment in a line: ADP-mediated platelet activation/aggregation. The data set is classed as cell-based.
For data set [1], the target named is T2, α2-adrenoreceptor.
T2 construct: other: 5 nM [3H]-DHE
As to the kind of experiment: [3H]-dihydroergocryptine binding to α2-adrenoreceptor membranes. The conditions noted are these: 5 nM [3H]-DHE. The procedure: Methods: Radioligand binding experiments were performed with commercially available membrane preparations from cells expressing the α2-adrenoreceptor (Sigma) in accordance with the manufacturer's instructions. […] Experiments were performed in triplicate, and non-specific binding was determined in the presence of an excess (10 μM) of oxymetazoline.

For data set [2], the target named is α2-adrenoreceptor. The conditions noted are these: radioligand RS-79948-197; Grainger et al. (2005); read-out: Apparent affinity at α2-adrenoreceptor; cited from earlier work.
Data set [3] addresses type 2 somatostatin receptor (sstr2), human (human) (UniProt P30874). As to the kind of experiment: cell-based or functional assay.
The test system of a further data set is 5HT2a. Particulars: rodents, cited from earlier work.
For a further data set, the system named is leukocytes. The experiment in a line: Chemokine-induced leukocyte migration (cells not specified). The conditions noted are these: description b37, b38. The data set is classed as cell-based.
The target in the next data set is T3, sstr2 (Homo sapiens, UniProt P30874).
T3 construct: with 1×10^6 THP-1 cells in Gey's Balanced Salt Solution; endogenous in cells; host or cells: THP-1 cells (whole cells, 4° C.)
As to the kind of experiment: Equilibrium binding of [3H]-BN83250 to THP-1 cells. The procedure: Methods: [^3H]-BN83250 was synthesesized from (S,E)-3-(2′,2′-dimethyldodec-4′-enoylamino)-caprolactam by catalytic hydrogenation using tritium gas over a palladium catalyst (CRB Ltd, Cleveland, UK), yielding the tritiated product at a concentration of […] in ethanol with a specific activity of 220 Ci/mmol. The (S,E)-3-(2′,2′-dimethyldodec-4′-enoylamino)-caprolactam was prepared as follows: (S,S)-3-amino-caprolactam hydro-pyrrolidine-5-carboxylate (10 mmol) and Na2CO3 (30 mmol) in water (30 ml) were added to a solution of 2,2-dimethyl-dodec-4-enoyl chloride (10 mmol) in dichloromethane (30 ml) at ambient temperature and the reaction was stirred for 12 hours. The organic layer was then separated and the aqueous phase was extracted with additional dichloromethane (2×25 ml). The combined organic layers were dried over Na2CO3 and reduced in vacuo. The residue was purified by silica column chromatography (1:1 EtOAc:hexanes to EtOAc) to give […]-3-(2′,2′-dimethyl-dodec-4′-enoyl)amino-caprolactam as a colourless oil (2.12 g, 63%). The radiolabelled compound was stored in the dark at 4° C. until required. Prior to use the specific activity was adjusted by addition of unlabelled BN83250.
For the analysis of binding, individual reactions were set up (in triplicate for each condition), with 1×10^6 THP-1 cells in Gey's Balanced Salt Solution, 10 nM [^3H]-BN83250 (at 50 Ci/mmol) and various concentrations of (S)-3(2′2′-dimethylpropionoylamino)-tetrahydropyridin-2-one (10 pM to 10 μM). Excess (100 μM) unlabelled BN83250 was used to determine the level of non-specific binding. After 2 hours at 4° C. (conditions previously shown to achieve equilibrium binding, and which prevent uptake of the radioligand that would result in an over-estimate of binding) excess label was washed away by centrifugation (3 washes with 5 ml of Gey's Balanced Salt Solution) and the bound radioactivity was determined by scintillation counting of the solubilised cell pellet.

The subject of the next data set is Panc-2H4 cells. The experiment in a line: Human Panc-2H4 insulin suppression assay. The conditions noted are these: Table 3. The class given is cell-based. From the text:
(§1) Two different assays for “classical” sstr2 functions were adopted: (1) cultured foetal rat pituitary cells secreted growth hormone which is inhibited by sstr2 agonists in a dose-dependent fashion and (2) selected glucose-sensitive sub-clones of the human Panc-1 cell line secrete insulin which is inhibited by sstr2 agonists in a dose-dependent fashion.
Glucose-sensitive sub-clones of the human Panc-1, a cell line derived from a pleiomorphic epithelioid carcinoma of the exocrine pancreas, were obtained essentially as described by Hamil et al. (2008) Biomed. Sci. Instrum. 44:441-6. Briefly, Panc-1 cells were subcultured in 24 well plates, and the medium was supplemented with an additional 5% glucose. […] The resulting sub-lines were then tested for glucose sensitivity by preparing wells of a 96-well plate (5×10^4 cells per well) which were then exposed to cultured medium containing a range of glucose concentrations (low glucose DMEM, DMEM, DMEM+1% glucose, DMEM+2.5% glucose and DMEM+5% glucose). After 24 hrs incubation, the conditioned medium was collected and assayed for insulin secretion by ELISA (Linco; cat# EZHI-14K) in accordance with the manufacturer's instructions.
Further 96 well plates were prepared using Panc-2H4 (5×10^4 cells per well) in DMEM. After 24 hrs, the medium was switched to DMEM+5% glucose containing various test agents at various concentrations (triplicate wells per condition). After a further 24 hrs, the conditioned medium was harvested and the concentration of insulin was determined by ELISA as described above.
(§2) Results were reported as the mean±SD, expressed as the fold change from cells in the presence of vehicle only.

Data set [4] has as its system rat peripheral blood leukocytes. As to the kind of experiment: Rat chemokine-induced PBMC migration assay. The data set is classed as cell-based. Particulars: Table 3.
In the next data set the test system is fetal rat pituicytes. The experiment in a line: Rat pituicyte GH suppression assay. The data set is classed as cell-based.
Text: as §1
Methods: Cultures of fetal rat pituicytes were established exactly as previously described (Murray et al. (2004) J. Clin. Endocrinol. Metab. 89:3027-32) by enzymatic dispersion. After 48 hrs in low glucose DMEM plus 10% FCS, cells in 48 well plates (5×10^4 cells per well) were washed for 4 hrs in serum-free DMEM and then incubated with test agents at various concentrations for a further 24 hrs in serum-free DMEM. At the end of this period, the conditioned medium was harvested, any cell debris removed by centrifugation and assayed for GH using a commercially available ELISA (Linco; cat# EZRMGH-45K) in accordance with the manufacturer's instructions.
as §2

Data set [5] concerns α2-adrenoreceptor. As to the kind of experiment: Blood pressure. The class given is in vivo. Particulars: description b37.

Chain of type 2 somatostatin receptor (sstr2), human (human) (P30874 whole entry): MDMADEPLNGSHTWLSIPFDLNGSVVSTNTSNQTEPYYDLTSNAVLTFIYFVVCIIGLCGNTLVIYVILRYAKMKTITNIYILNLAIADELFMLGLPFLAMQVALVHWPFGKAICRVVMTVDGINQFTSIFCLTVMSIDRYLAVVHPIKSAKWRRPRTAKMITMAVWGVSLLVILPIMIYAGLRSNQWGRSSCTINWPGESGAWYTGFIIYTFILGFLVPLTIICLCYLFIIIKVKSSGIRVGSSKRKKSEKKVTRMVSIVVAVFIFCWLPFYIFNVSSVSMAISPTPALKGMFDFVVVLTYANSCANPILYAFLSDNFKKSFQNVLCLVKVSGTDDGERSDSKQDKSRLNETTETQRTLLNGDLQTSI
T3 sequence (P30874 whole entry): as above
T1 sequence (P28223 whole entry): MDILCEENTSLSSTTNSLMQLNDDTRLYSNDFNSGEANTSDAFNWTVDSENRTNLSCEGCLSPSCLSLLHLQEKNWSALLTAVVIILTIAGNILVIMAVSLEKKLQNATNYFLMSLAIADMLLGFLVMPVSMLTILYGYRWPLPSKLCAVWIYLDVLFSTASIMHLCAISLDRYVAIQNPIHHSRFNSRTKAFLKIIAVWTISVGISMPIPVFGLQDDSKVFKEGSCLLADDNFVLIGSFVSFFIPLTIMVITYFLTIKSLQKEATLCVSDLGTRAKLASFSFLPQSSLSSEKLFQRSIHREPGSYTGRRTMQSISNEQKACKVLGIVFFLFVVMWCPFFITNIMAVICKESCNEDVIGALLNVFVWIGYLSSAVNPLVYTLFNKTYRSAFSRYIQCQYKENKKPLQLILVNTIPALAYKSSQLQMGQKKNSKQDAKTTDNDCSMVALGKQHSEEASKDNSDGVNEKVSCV

For the compound `CN1C[C@H](C(=O)O)C=C2c3cccc4[nH]cc(c34)C[C@H]21` [lysergic acid], at 5HT2a receptor, the Ki turned out to be 49 ± 12 nM. Further, the “Inhibition of MCP-1 induced THP-1 cell migration, in words” value in the data set on THP-1 cells (MCP-1 25 ng/ml) is “neither agent inhibits”. For the same compound, the “Inhibition of SDF-1α induced migration of Jurkat T cells, in words” value in the data set with Jurkat T cells is recorded as “neither agent inhibits”.
As to `NC(=O)C1CCC[C@H]2CN3CCc4c([nH]c5ccccc45)[C@@H]3C[C@H]12` (stereo partly drawn) [Yohimban-16-amide], the “Effect on ADP-mediated platelet activation/aggregation” value in the data set with platelets is recorded as “no effect on the activation of platelets in response to ADP”. For the same compound, the “Apparent Ka, inhibition of [3H]-DHE binding” value on α2-adrenoreceptor [1] stood at 89 ± 13 nM. Besides, the Ki on α2-adrenoreceptor [2] is 770 nM. Also, the “Inhibition of SDF-1α induced migration of Jurkat T cells, in words” value with Jurkat T cells is listed as “neither agent inhibits”.
cortistatin (peptide) yielded an ED50 for inhibition of MCP-1 induced THP-1 cell migration in data set [3] of 75 nM.
Take `COc1cc(Br)c(OC)c2c1[C@H](CN)C2` [TCB-2]: the “Head twitching by classical 5HT2a agonists” value is given as “induce this classical effect” in the data set with 5HT2a and “powerfully induces head twitch” with 5HT2a (listed as TCB2). Further, the “Effect on chemokine-induced leukocyte migration, in words” value with leukocytes is listed as “no effect on chemokine-induced leukocyte migration”.
`O=C1NCCCC[C@@H]1NC(=O)C12CC3CC(CC(C3)C1)C2` [BN83470, (S)-3-(admantane-1′-carbonylamino)-caprolactam]: the “Competition with BN83250 binding to sstr2, in words” value on sstr2 is reported as “compete with BN83250 binding to sstr2 to a similar extent”. In addition, the EC50 in the data set with Panc-2H4 cells (read-out: Human Panc-2H4 insulin suppression assay ED50) was above 1000 nM; in the data set on fetal rat pituicytes (Table 3, read-out: Rat pituicyte GH suppression assay ED50), 270 nM. The “Human Panc-2H4 insulin suppression assay Max effect” value with Panc-2H4 cells (suppression compared to vehicle) was below 10%. For the same compound, the “Rat chemokine-induced PBMC migration assay Max effect” value in data set [4] was determined as 100%. For the same compound, the “Inhibition of GH release, in words” value with fetal rat pituicytes is listed as “inhibited GH release only at much higher concentrations”. The “Rat pituicyte GH suppression assay Max effect” value with fetal rat pituicytes (Table 3, suppression compared to vehicle) is listed as 56%. For the same compound, the “Human chemokine-induced THP-1 migration assay Max effect” value with THP-1 cells (Table 3) turned out to be 100%.
Turning to `COC(=O)[C@H]1[C@H]2C[C@@H]3c4[nH]c5cc(OC)ccc5c4CCN3C[C@H]2C[C@@H](OC(=O)c2cc(OC)c(OC)c(OC)c2)[C@@H]1OC` [reserpine], the “Effect on chemokine-induced leukocyte migration, in words” value with leukocytes is reported as “no effect on chemokine-induced leukocyte migration”. The “Effect on blood pressure” value in the data set on α2-adrenoreceptor [5] is recorded as “powerfully lowers blood pressure”.

The record behind these values is patent US20120053076A1, “METHODS FOR IDENTIFICATION” (Cambridge Enterprise Limited, priority 2009, published 2012).
